Measurements: patent US20110296540A1, “ASSAY FOR SCREENING ANTIDEPRESSANTS” (priority 2008, published 2011)
Like-named read-outs stand apart in the source and are kept apart here.

Columns and labels:
[1] = system: 1A-High and 1A-Low mice; test: Novelty-suppressed feeding paradigm in 1A-High and 1A-Low mice; assay type: in vivo; conditions: twenty-five days, 18 mg/kg/day p.o.
From the text: The NSF paradigm is a test of hyponeophagia that measures the latency of a mouse to consume food placed in the middle of a brightly lit, aversive arena.

[2] = system: MPP/DG synaptic connection; test: Field electrophysiological recordings on hippocampal slices (MPP/DG), sham or x-irradiated animals; assay type: in vivo, mice
Description: Electrophysiology. Brains were collected from animals after deep anesthesia with halothane and decapitation, and transverse hippocampal slices (400 μm) were prepared using a vibratome. […] Slices were allowed to equilibrate for 2 h before positioning the electrodes and beginning stimulation.
To record from the DG, the medial perforant path (MPP) was stimulated using a World Precision Instruments (Sarasota, Fla.) stimulation isolation unit and a bipolar tungsten electrode. Evoked potentials were recorded in the molecular layer above the upper blade of the DG using a glass capillary microelectrode filled with artificial CSF (tip resistance of 1-3 MΩ). […] Input-output curves were obtained after 10 min of stable recordings. […] After 15 min of stable baseline response to test stimulation (once every 20 s), the ability to elicit LTP was assessed. […] Responses were recorded every 20 for 60 min after LTP induction.

[3] = system: β-arrestin 1; conditions: hypothalamus
Description: (§1) Tissue preparation: Animals were sacrificed by cervical dislocation. Selected brain regions were dissected and placed in tubes containing RNAlater (Ambion), incubated at 4 degrees C. overnight and stored at −80 degrees C. until processing.
(§2) Brain regions (10-20 mg) were homogenized for 20 sec at medium speed in 1.25 ml lysis/denaturation buffer (Ambion) using an Autogizer™ (Tomtec). Total RNA was isolated from 100-300 ul aliquots of the homogenate using the RNAqueous™ 96 automated kit (Ambion) according to the manufacturer's protocol. A second DNase I digestion was incorporated after elution of the RNA from the Ambion filter plate to remove residual genomic DNA. Digestion was performed for 1 hr at room temperature using DNase I™ (Invitrogen) and the buffer supplied with the enzyme. After inactivation of the DNase with EDTA and heat, the RNA was desalted with a Multiscreen™ filter plate (Millipore) and stored at −80° C. Conversion of total RNA into first strand cDNA was accomplished with Superscript II™ enzyme (Invitrogen) followed by desalting over a Multiscreen plate. Approximately 1 ug of total RNA was used for each cDNA reaction. The yield of cDNA was determined using Quant-iT Oligreen™ reagent (Invitrogen). Prior to the Oligreen assay, total RNA carried over from the cDNA reaction was hydrolyzed with NaOH and heat, followed by neutralization with Tris buffer. This treatment eliminates any contribution of the RNA to the Oligreen signal. The unknown cDNA samples were compared to a standard curve derived using a 18mer oligonucleotide. Replica cDNA plates containing 3 ng of cDNA per well were prepared using an Evolution P3™ workstation (PerkinElmer). Each animal in a given experiment was represented by one well on each plate and each plate always contained the control and treatment groups.
(§3) Quantitative PCR (qPCR) was carried out in 25 ul reactions using Full Velocity™ enzyme (Stratagene). Plates were run on either a Stratagene MX3000P™ or an Applied Biosystems 7900 HT instrument. The cycling parameters were set based on recommendations from the enzyme manufacturer. One gene expression profile was analyzed per PCR plate and duplicate plates were run for each gene. Two housekeeping genes, cyclophilin and GAPDH, were included in the gene list and were used to normalize the expression results obtained from the other genes of interest (see data analysis section). The sequences of the primers and probes for each gene are listed in supplemental table 1. Duplicate cycle thresholds (Ct values) were obtained for each gene/region and averaged. […] After converting delta Ct values to percentage, the mean and SEM of each animal group (controls and experimental) was calculated.

[4] = system: β-arrestin 2
Description: as §1, §2, §3

[5] = system: Giα2; conditions: hypothalamus
Description: as §1, §2, §3

[6] = target: T1, 5-HT1A autoreceptors (Mus musculus, UniProt Q64264)
T1 sequence (Q64264 1-421): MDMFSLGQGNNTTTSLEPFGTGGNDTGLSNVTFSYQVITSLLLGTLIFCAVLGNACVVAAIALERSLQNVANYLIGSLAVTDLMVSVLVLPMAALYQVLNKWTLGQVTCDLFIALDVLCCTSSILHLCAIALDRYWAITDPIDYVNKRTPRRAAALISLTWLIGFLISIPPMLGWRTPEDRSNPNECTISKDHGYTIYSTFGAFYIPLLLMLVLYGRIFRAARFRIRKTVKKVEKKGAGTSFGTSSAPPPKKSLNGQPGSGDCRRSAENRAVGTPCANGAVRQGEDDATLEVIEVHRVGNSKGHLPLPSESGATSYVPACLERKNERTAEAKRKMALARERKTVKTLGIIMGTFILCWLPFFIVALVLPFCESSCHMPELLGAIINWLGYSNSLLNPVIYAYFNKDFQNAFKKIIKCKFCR
Description: (A) 8-OH DPAT-induced hypothermia in 1A-High and 1A-Low mice. Following establishment of baseline body temperature, animals received IP injections of 0.1 mg/kg 8-OHDAPT, 0.5 mg/kg 8-OH DPAT, or saline (N=5/dose/group). Values are expressed as core temperature change from the last recorded baseline temperature.

[7] = system: C57BL/6Ntac mice; test: Home cage activity; assay type: in vivo; conditions: chronic antidepressant treatment (fluoxetine 18 mg/kg/day)
Description: Home cage activity Home cage activity was quantified using the ActiV-Meter (Bioseb, France) over a 24 hours period. During the experiment, food and water were provided ad libitum. Various parameters such as activity time (sec), ambulatory distance (cm) and inactivity duration (calculated from the difference between immobility and motionless activity duration while the animal is eating or scratching) were recorded. The open field paradigm, the novelty suppressed feeding, the forced swim test The procedure for each behavioral test, i.e. the open field paradigm, the novelty suppressed feeding, the forced swim test, is described in the materials and methods section.

[8] = system: C57BL/6Ntac mice; test: Changes in coat state
[9] = system: C57BL/6Ntac mice; test: Splash test (grooming); assay type: in vivo; conditions: corticosterone, without or with 3 weeks of fluoxetine 18 mg/kg/day; mean±SEM
Description: This test consisted in squirting 200 ul of a 10% sucrose solution on the mouse's snout. The grooming duration and grooming frequency were then recorded.

[10] = system: C57BL/6Ntac mice; test: Forced Swim Test, chronic corticosterone model; assay type: in vivo; conditions: for immobility duration (FST): mean±SEM

Which “latency to feed (NSF), response to fluoxetine” value ([1]; 1A-High mice) does the source give for `CNCCC(Oc1ccc(C(F)(F)F)cc1)c1ccccc1` (stereo not shown) [fluoxetine] here?
Its value is “no response”.

And the “latency to feed (NSF), response to fluoxetine” value ([1]; 1A-Low mice)?
Its value is “responded robustly”.

What about the “input-output functions in the MPP/DG” value ([2]; chronic fluoxetine) of the same compound?
Its value is “significantly increased”.

What about the “paired-pulse depression (50 ms interstimulus interval)” value ([2]; chronic fluoxetine, one-third of maximal response and 60 μA) of the same compound?
The value was “suppressed”.

What about the ACSF-LTP ([2]; chronic fluoxetine, sham animals) of the same compound?
The ACSF-LTP was “enhanced”.

What about the LTP ([2]; chronic fluoxetine, x-irradiated animals) of the same compound?
Its LTP is “completely blocked”.

What about the “input-output functions in the MPP/DG” value ([2]; subchronic fluoxetine) of the same compound?
The value was “significantly increased”.

What about the ACSF-LTP ([2]; subchronic fluoxetine, both sham and x-irradiated animals) of the same compound?
Its ACSF-LTP is “suppression”.

And the “β-arrestin 1 expression” value [3]?
The value was “totally reversed”.

And the “β-arrestin 2 levels” value ([4]; hippocampus, fluoxetine)?
Its value is “opposite effect”.

What about the “β-arrestin 2 expression” value ([4]; hypothalamus, fluoxetine in corticosterone-treated mice) of the same compound?
Its value is “reversed”.

What about the Giα2 expression [5] of the same compound?
The Giα2 expression was “totally reversed”.

What about the “hypothermic response to 8-OH DPAT after chronic fluoxetine” value ([6]; 1A-High mice treated with fluoxetine for 30 days) of the same compound?
The value was “no hypothermic response”.

And the “hypothermic response to 8-OH DPAT after chronic fluoxetine” value ([6]; 1A-Low mice treated with fluoxetine for 30 days)?
Its value is “blunted hypothermic response”.

What about the “corticosterone-induced decreased home cage activity and flattened circadian rhythm” value [7] of the same compound?
Its value is “is not reversed”.

And the “deterioration of the coat state induced by chronic corticosterone” value ([8]; 3 week fluoxetine regimen)?
The value was “reversed”.

And the “coat state total score (sum of five body parts)” value ([8]; chronic corticosterone, without or with 3 week fluoxetine, mean±SEM)?
The value was 1.80±0.08.

And the “grooming duration (splash test)” value [9]?
Its value is 99.8 s.

And the “grooming frequency (splash test)” value [9]?
The value was 9±1.

And the “immobility duration (FST)” value ([10]; corticosterone treated animals, alone or with antidepressant)?
The value was 311.4 s.

What about the “immobility duration (FST)” value ([10]; non-corticosterone treated animals) of the same compound?
The value was 302.9 s.

What about the “duration of immobility (FST), effect” value ([10]; two-way ANOVA, corticosterone 7 weeks, antidepressants last 3 weeks) of the same compound?
The value was “decreased”.
